Data from ChEMBL document CHEMBL3045529, “A rational design, synthesis, characterization, and antihypertensive activities of some new substituted benzimidazoles” (2013).

Tested on: Cavia porcellus
Assay: Antihypertensive activity in Cavia porcellus (guinea pig) assessed as decrease in systolic blood pressure at 3 mg/kg, iv relative to control
Format: functional, Artery

| Structure (SMILES) | Activity [mmHg] |
| --- | --- |
| CCCCc1nc2cc([N+](=O)[O-])ccc2n1Cc1ccc(-c2ccccc2-c2nnn[nH]2)cc1 | 15 |
| CCCCc1nc2cc(N)ccc2n1Cc1ccc(-c2ccccc2-c2nnn[nH]2)cc1 | 19 |
| CCCCc1nc2cc(NC(C)=O)ccc2n1Cc1ccc(-c2ccccc2-c2nnn[nH]2)cc1 | 22 |
| CCCCc1nc2cc(NC(=O)c3ccccc3)ccc2n1Cc1ccc(-c2ccccc2-c2nnn[nH]2)cc1 | 28 |
| C/C=N/c1ccc2c(c1)nc(CCCC)n2Cc1ccc(-c2ccccc2-c2nnn[nH]2)cc1 | 27 |
| CC/C=N/c1ccc2c(c1)nc(CCCC)n2Cc1ccc(-c2ccccc2-c2nnn[nH]2)cc1 | 18 |
| CCC/C=N/c1ccc2c(c1)nc(CCCC)n2Cc1ccc(-c2ccccc2-c2nnn[nH]2)cc1 | 17 |
| CCCC/C=N/c1ccc2c(c1)nc(CCCC)n2Cc1ccc(-c2ccccc2-c2nnn[nH]2)cc1 | 27 |
| CCCCC/C=N/c1ccc2c(c1)nc(CCCC)n2Cc1ccc(-c2ccccc2-c2nnn[nH]2)cc1 | 25 |
| CCCCc1nc2cc(NC)ccc2n1Cc1ccc(-c2ccccc2-c2nnn[nH]2)cc1 | 12 |
| CCCCc1nc2cc(N(C)C)ccc2n1Cc1ccc(-c2ccccc2-c2nnn[nH]2)cc1 | 29 |
| CCCCc1nc2cc(NCC)ccc2n1Cc1ccc(-c2ccccc2-c2nnn[nH]2)cc1 | 29 |
| CCCCc1nc2cc(N(CC)CC)ccc2n1Cc1ccc(-c2ccccc2-c2nnn[nH]2)cc1 | 33 |
| CCCCc1nc2cc(NCCC)ccc2n1Cc1ccc(-c2ccccc2-c2nnn[nH]2)cc1 | 32 |
| CCCCNc1ccc2c(c1)nc(CCCC)n2Cc1ccc(-c2ccccc2-c2nnn[nH]2)cc1 | 31 |
| CCCCc1nc2cc(NCc3ccccc3)ccc2n1Cc1ccc(-c2ccccc2-c2nnn[nH]2)cc1 | 31 |
| CCCCc1nc(Cl)c(CO)n1Cc1ccc(-c2ccccc2-c2nnn[nH]2)cc1 [LOSARTAN] | 34 |
